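Five compound concentrations were applied to cells in 96-well plates for 48 hours; endpoints were derived by simple linear interpolation of the resulting dose-response curve. At the TGI there is no net growth.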
Assays:
Assay in all cases: NCI tumour cell line growth inhibition, 48 h
786-0 renal = test system: 786-0 renal
A498 renal = test system: A498 renal
A549 NSCLC = test system: A549 NSCLC
ACHN renal = test system: ACHN renal
CAKI-1 renal = test system: CAKI-1 renal
COLO 205 colon = test system: COLO 205 colon
DLD-1 colon = test system: DLD-1 colon
DMS 273 small cell lung = test system: DMS 273 small cell lung
EKVX NSCLC = test system: EKVX NSCLC
HCC-2998 colon = test system: HCC-2998 colon
HCT-116 colon = test system: HCT-116 colon
HCT-15 colon = test system: HCT-15 colon
HL-60(TB) leukemia = test system: HL-60(TB) leukemia
HOP-18 NSCLC = test system: HOP-18 NSCLC
HOP-62 NSCLC = test system: HOP-62 NSCLC
HOP-92 NSCLC = test system: HOP-92 NSCLC
HT29 colon = test system: HT29 colon
IGROV1 ovarian = test system: IGROV1 ovarian
K-562 leukemia = test system: K-562 leukemia
KM12 colon = test system: KM12 colon
KM20L2 colon = test system: KM20L2 colon
LOX IMVI melanoma = test system: LOX IMVI melanoma
LXFL 529 NSCLC = test system: LXFL 529 NSCLC
M14 melanoma = test system: M14 melanoma
M19-MEL melanoma = test system: M19-MEL melanoma
MALME-3M melanoma = test system: MALME-3M melanoma
MOLT-4 leukemia = test system: MOLT-4 leukemia
NCI-H226 lung = test system: NCI-H226 lung
NCI-H23 lung = test system: NCI-H23 lung
NCI-H460 lung = test system: NCI-H460 lung
NCI-H522 lung = test system: NCI-H522 lung
OVCAR-3 ovarian = test system: OVCAR-3 ovarian
OVCAR-4 ovarian = test system: OVCAR-4 ovarian
OVCAR-5 ovarian = test system: OVCAR-5 ovarian
OVCAR-8 ovarian = test system: OVCAR-8 ovarian
RPMI-8226 leukemia = test system: RPMI-8226 leukemia
RXF 393 renal = test system: RXF 393 renal
SF-268 CNS = test system: SF-268 CNS
SF-295 CNS = test system: SF-295 CNS
SF-539 CNS = test system: SF-539 CNS
SK-MEL-28 melanoma = test system: SK-MEL-28 melanoma
SK-MEL-5 melanoma = test system: SK-MEL-5 melanoma
SK-OV-3 ovarian = test system: SK-OV-3 ovarian
SN12C renal = test system: SN12C renal
SNB-19 CNS = test system: SNB-19 CNS
SNB-75 CNS = test system: SNB-75 CNS
SNB-78 CNS = test system: SNB-78 CNS
SR leukemia = test system: SR leukemia
SW-620 colon = test system: SW-620 colon
TK-10 renal = test system: TK-10 renal
U251 CNS = test system: U251 CNS
UACC-257 melanoma = test system: UACC-257 melanoma
UACC-62 melanoma = test system: UACC-62 melanoma
UO-31 renal = test system: UO-31 renal
XF 498 CNS = test system: XF 498 CNS

Measured: TGI

Cc1ccc(S(=O)OCC23CC4CC(CC(C4)C2)C3)cc1 (stereo not given)
> 100 µM: 786-0 renal | A498 renal | A549 NSCLC | ACHN renal | CAKI-1 renal | COLO 205 colon | DLD-1 colon | DMS 273 small cell lung | EKVX NSCLC | HCC-2998 colon | HCT-116 colon | HCT-15 colon | HL-60(TB) leukemia | HOP-18 NSCLC | HOP-62 NSCLC | HOP-92 NSCLC | HT29 colon | IGROV1 ovarian | K-562 leukemia | KM12 colon | KM20L2 colon | LOX IMVI melanoma | LXFL 529 NSCLC | M14 melanoma | M19-MEL melanoma | MALME-3M melanoma | MOLT-4 leukemia | NCI-H226 lung | NCI-H23 lung | NCI-H460 lung | NCI-H522 lung | OVCAR-3 ovarian | OVCAR-4 ovarian | OVCAR-5 ovarian | OVCAR-8 ovarian | RPMI-8226 leukemia | RXF 393 renal | SF-268 CNS | SF-295 CNS | SF-539 CNS | SK-MEL-28 melanoma | SK-MEL-5 melanoma | SK-OV-3 ovarian | SN12C renal | SNB-19 CNS | SNB-75 CNS | SNB-78 CNS | SR leukemia | SW-620 colon | TK-10 renal | U251 CNS | UACC-257 melanoma | UACC-62 melanoma | UO-31 renal | XF 498 CNS
